Literature values as cited in patent publication US20140148378A1, “ANTIBACTERIAL PEPTIDES” (THE REGENTS OF THE UNIVERSITY OF CALIFORNIA, priority 2012, published 2014).

Legend:
[1] = from bioactive peptide databases / literature
[2] = lactoferricin versus human lactoferrin

Row | Substance | Known activity of overlapping literature bioactive peptide [1] | bactericidal effects relative to the parent protein [2]
1 | QELLLNPTHQYPVTQPLAPVHNPISV (listed as Homo sapiens) [SEQ ID NO: 506] | Antibacterial | –
2 | QPTIPFFDPQIPK (listed as Homo sapiens) [SEQ ID NO: 505] | Immuno- | –
3 | YQRRPAIAINNPYVPRTYYANPAVVRPHAQIPQRQYLPNSHPPTVVRRPNLHPSF (listed as Homo sapiens) [SEQ ID NO: 504] | Antibacterial | –
4 | lactoferricin | – | 10-100 times
